Laboratory results from US7872014B2, “Anaplastic lymphoma kinase modulators and methods of use” (Exelixis, Inc., priority 2003, dated 2011).

Molecular target: T1, ALK (baculovirus expressed human ALK kinase domain F1098-K1410) (Homo sapiens, UniProt Q9UM73)
T1 construct: baculovirus expressed human ALK kinase domain F1098-K1410; made in house
Assay: Luciferase-Coupled Chemiluminescent Kinase assay (LCCA), ALK biochemical activity
Settings: inhibition of ALK; mean values; 1 μM ATP, 4 μM poly-AEKY, 12 nM ALK, 2 hours ambient temperature
Method: ALK biochemical activity was assessed using a Luciferase-Coupled Chemiluminescent Kinase assay (LCCA) format in which kinase activity was measured as the percent ATP remaining following the kinase reaction. ATP remaining after the kinase reaction was detected by luciferase-luciferin-coupled chemiluminescence.
The reaction was initiated by mixing test compounds, 1 μM ATP, 4 μM poly-AEKY and 12 nM ALK (baculovirus expressed human ALK kinase domain F1098-K1410) in a 20 μL assay buffer ([…] pH 7.5, 10 mM MgCl2, 0.02% Triton X-100, 100 mM DTT, 2 mM MnCl2). The mixture was incubated at ambient temperature for 2 hours after which 20 μL luciferase-luciferin mix was added and the chemiluminescent signal read using a Wallac Victor^2 reader. The luciferase-luciferin mix consists of 50 mM HEPES, pH 7.8, 8.5 μg/mL oxalic acid (pH 7.8), 5 (or 50) mM DTT, 0.4% Triton X-100, 0.25 mg/mL coenzyme A, 63 μM AMP, 28 μg/mL luciferin and 40,000 units of light/mL luciferase.
Consumption of ATP by ALK can thus be quantified and utilized as a measure of inhibition of ALK activity by compounds described herein. By employing serial dilutions of compounds to be tested, the ability of test compounds to inhibit ALK activity can be determined.

T1 sequence (Q9UM73 1098-1410): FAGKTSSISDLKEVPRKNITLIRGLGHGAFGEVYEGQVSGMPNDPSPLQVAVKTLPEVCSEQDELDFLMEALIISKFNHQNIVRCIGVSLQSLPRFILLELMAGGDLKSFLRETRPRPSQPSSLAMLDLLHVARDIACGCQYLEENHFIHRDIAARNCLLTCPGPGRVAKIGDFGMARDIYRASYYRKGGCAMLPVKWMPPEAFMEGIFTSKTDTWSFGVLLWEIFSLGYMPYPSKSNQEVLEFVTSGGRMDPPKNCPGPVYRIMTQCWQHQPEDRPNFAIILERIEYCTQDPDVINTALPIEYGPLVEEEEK

COc1cc(F)c2c(-c3ccc(O)cc3)nc3[nH]nc(C)c3c2c1F [Example 79, 4-[6,9-difluoro-1-methyl-8-(methyloxy)-3H-pyrazolo[3,4-c]isoquinolin-5-yl]phenol]
IC50: ≤ 99 nM

COc1ccc2c(-c3ccc(O)c(Br)c3)nc3[nH]nc(C)c3c2c1OCCN1CCOCC1 [Example 80, 2-bromo-4-{1-methyl-8-(methyloxy)-9-[(2-morpholin-4-ylethyl)oxy]-3H-pyrazolo[3,4-c]isoquinolin-5-yl}phenol]
IC50: 100 to 999 nM

COc1ccc2c(-c3ccc(O)c(Cl)c3)nc3[nH]nc(C)c3c2c1OCCN1CCOCC1 [Example 81, 2-chloro-4-{1-methyl-8-(methyloxy)-9-[(2-morpholin-4-ylethyl)oxy]-3H-pyrazolo[3,4-c]isoquinolin-5-yl}phenol]
IC50: 100 to 999 nM

COc1cc2c(-c3ccc(O)cc3)nc3[nH]nc(CNCc4ccccc4)c3c2cc1OC [Example 82, 4-(7,8-bis(methyloxy)-1-{[(phenylmethyl)amino]methyl}-3H-pyrazolo[3,4-c]isoquinolin-5-yl)phenol]
IC50: 100 to 999 nM

COc1cc2c(-c3cc(C)c(O)cc3C)nc3[nH]nc(C)c3c2cc1OC [Example 83, 2,5-dimethyl-4-[1-methyl-7,8-bis(methyloxy)-3H-pyrazolo[3,4-c]isoquinolin-5-yl]phenol]
IC50: 100 to 999 nM

COc1cc2c(-c3cc(Cl)c(O)cc3Cl)nc3[nH]nc(C)c3c2cc1OC [Example 85, 2,5-dichloro-4-[1-methyl-7,8-bis(methyloxy)-3H-pyrazolo[3,4-c]isoquinolin-5-yl]phenol]
IC50: ≤ 99 nM

COc1ccc2c(-c3ccc(O)c(Br)c3)nc3[nH]nc(C)c3c2c1OCC1CCN(C)CC1 [Example 87, 2-bromo-4-(1-methyl-8-(methyloxy)-9-{[(1-methylpiperidin-4-yl)methyl]oxy}-3H-pyrazolo[3,4-c]isoquinolin-5-yl)phenol]
IC50: ≤ 99 nM

COc1cc2c(-c3ccc(O)c(Cl)c3)nc3[nH]nc(C)c3c2cc1OCC1CCN(C)CC1 [Example 88, 2-chloro-4-(1-methyl-7-(methyloxy)-8-{[(1-methylpiperidin-4-yl)methyl]oxy}-3H-pyrazolo[3,4-c]isoquinolin-5-yl)phenol]
IC50: ≤ 99 nM

COc1ccc2c(-c3ccc(O)cc3)nc3[nH]nc(C)c3c2c1F [Example 89, 4-[9-fluoro-1-methyl-8-(methyloxy)-3H-pyrazolo[3,4-c]isoquinolin-5-yl]phenol]
IC50: ≤ 99 nM

COCCOc1c(OC)ccc2c(-c3ccc(O)cc3)nc3[nH]nc(C)c3c12 [Example 90, 4-(1-methyl-8-(methyloxy)-9-{[2-(methyloxy)ethyl]oxy}-3H-pyrazolo[3,4-c]isoquinolin-5-yl)phenol]
IC50: ≤ 99 nM

COc1ccc2c(-c3ccc(O)c(Cl)c3)nc3[nH]nc(C)c3c2c1OCC1CCN(C)CC1 [Example 91, 2-chloro-4-(1-methyl-8-(methyloxy)-9-{[(1-methylpiperidin-4-yl)methyl]oxy}-3H-pyrazolo[3,4-c]isoquinolin-5-yl)phenol]
IC50: ≤ 99 nM

COc1cc2c(c(-c3ccc(O)cc3)nc3[nH]nc(C)c32)c(Br)c1C [Example 92, 4-[6-bromo-1,7-dimethyl-8-(methyloxy)-3H-pyrazolo[3,4-c]isoquinolin-5-yl]phenol]
IC50: ≤ 99 nM

COc1cc2c(c(-c3ccc(O)cc3)nc3[nH]nc(C)c32)c(F)c1OC [Example 93, 4-[6-fluoro-1-methyl-7,8-bis(methyloxy)-3H-pyrazolo[3,4-c]isoquinolin-5-yl]phenol]
IC50: ≤ 99 nM

COc1c(C)cc2c(-c3ccc(O)cc3)nc3[nH]nc(C)c3c2c1Cl [Example 94, 4-[9-chloro-1,7-dimethyl-8-(methyloxy)-3H-pyrazolo[3,4-c]isoquinolin-5-yl]phenol]
IC50: ≤ 99 nM

CCN1CCC(COc2cc3c(cc2OC)c(-c2ccc(O)c(Cl)c2)nc2[nH]nc(C)c23)CC1 [Example 95, 2-chloro-4-[8-{[(1-ethylpiperidin-4-yl)methyl]oxy}-1-methyl-7-(methyloxy)-3H-pyrazolo[3,4-c]isoquinolin-5-yl]phenol]
IC50: ≤ 99 nM
